{
  "source": "patent US20220196635A1",
  "about": "“Fibrosis Assay” (Georgia Tech Research Corporation, priority 2020, published 2022)",
  "key": {"[1]": {"test_system": "human primary lung fibroblasts (NHLF, IPF) in fibrin micro-scaffolds", "assay": "Contracting scar-in-a-drop fibroplasia assay (final projected area of cell-ECM spheroids)", "assay_type": "cell-based", "experimental": "Human primary lung fibroblasts were used in all experiments presented in this paper. Unless otherwise noted, experiments utilized normal human lung fibroblasts (NHLF B lot #0000580583; Lonza) from a person with a history of smoking. For experiments evaluating donor variability, the following cells were utilized: NHLF A (NHLF lot #0000608197; Lonza) from a person, IPF A (IPF lot #0000627840; Lonza) from a person, and IPF B (IPF lot #6F5002; Lonza) from a person. All cells were cultured in fibroblast growth media (FGM; Lonza). Cells were passaged at 80-90% confluence and were sub-cultured in 1:3 ratios by trypsinization. When at the desired confluence, cells were washed with PBS and 0.05% trypsin solution was added to the flask. Cells were incubated for 2 min, and then harvested and centrifuged ([…], 5 min) in a conical tube. The supernatant was aspirated and the cell pellet was re-suspended in FBS-free culture media. When used in fibrin degradation experiments, cells were re-suspended at 2× the final desired concentration (2500 cells/ul unless otherwise indicated). To promote collagen production and contraction in addition to fibrin degradation, serum (bovine or human) were added at 2% or higher up to about 10%. Higher cell densities (about 2500 cells/ul and higher up to about 10,000 cells/ul) also promote collagen production. All experiments were conducted with cells at or below passage 8 except for high passage experiments conducted at passage 12. In all experiments, media was changed every 48 hours and any media additives (plasminogen, TGF-β1, drugs, etc.,) were included.\nATPS printing of fibrin micro-scaffolds has previously described above. Briefly, working solutions of PEG with 0.1 U/mL of thrombin were warmed to 37° C. and pipetted into a 96-well plate. For production of droplets, fibrinogen-DEX solutions with cell suspension were maintained at 37° C. and 4 μl per assay (unless otherwise noted) was pipetted directly into the PEG-thrombin media using a semi-automated repeater pipette (Repeater E3X; Eppendorf). Following dispensing of the DEX phase, the plates were placed in an ambient air incubator at 37° C. for 30 min to allow the thrombin to enzymatically crosslink the fibrinogen into a fibrin matrix (FIG. 6A). The PEG-enriched media was removed using a 12-channel micropipette and replaced with 100 μl of fully supplemented media in each well. When applicable, this media addition was supplemented with stimuli as detailed in example 17 below. For the duration of each experiment, assay plates were imaged every 2 hours at 4× with an automated cell culture monitoring system (Incucyte S3; Sartorius). As the assay proceeded, the fibroblasts progressively remodeled the fibrin scaffold as illustrated in FIG. 6C.\nAfter each experiment, the final projected areas of the cell-ECM spheroids were determined from brightfield images taken at the final time point using a benchtop imaging system (2× objective; EVOS M7000; ThermoFisher). These images were then segmented through a process of pixel classification, thresholding, and morphological filtering in order to isolate the cell-ECM construct area from the background.\nPixel classification implemented Ilastic, a freely available image classification tool developed by the European Molecular Biology Laboratory. Ilastik's pixel classification utility implements a random forest classifier for quick and robust segmentation. In order to train the classifier, 10 characteristic images were selected to include different stages of ECM remodeling. In this step, each individual pixel is assigned a probability for belonging to layers for the background or the cell-ECM construct. Ilastik enables interactive training of the random forest classifier via user annotations of the training images. […]"}, "[2]": {"test_system": "NHLF cells and diseased IPF cells (primary human lung fibroblasts) in fibrin scaffold", "assay": "Microscale cell-mediated fibrinolysis assay (ATPS-printed fibroblast-laden fibrin scaffolds, brightfield pixel intensity)", "assay_type": "cell-based", "settings": "for impact on fibroblast-mediated fibrinolysis: 400 μM pirfenidone, 0.4 μM nintedanib, 20 μM diethyl-pythiDC, NHLF and IPF cells; for rate of cell-mediated fibrinolysis (50% degradation time): 100 μM hydrogen peroxide", "experimental": "A stock solution of DEX (20% w/w dextran T500; Sigma) was prepared in phosphate buffered saline (PBS) on a rocker overnight. A stock solution of PEG (6% w/w, 35 k MW; Sigma) was prepared in fully supplemented culture media with 10% deionized water to balance osmolality. Both stock solutions were passed through a 0.22 um sterilizing syringe filter before storage. PEG working solutions were stored for up to 2 weeks at 4° C. Thrombin (Human Alpha Thrombin; Enzyme Research Labs) was also added to the PEG solution at a concentration of 0.1 U/mL immediately preceding experiments. Fibrinogen-DEX solutions were prepared by diluting fibrinogen stock solution (human fibrinogen 3; Enzyme Research Labs) to a final concentration of 4 mg/mL in a sterile solution of 4% 10×DMEM, 15% DEX stock solution (to a final concentration of 3% dextran), and 50% cell suspension in growth media. For all experiments excluding cell concentration evaluation, the cell suspension was diluted for 1000 cells per microliter in the final fibrinogen-DEX solution.\nNormal human lung fibroblasts (NHLF lot #0000580583; […] Cells were passaged at 80-90% confluence and were sub-cultured in 1:3 ratios by trypsinization. When at the desired confluence, cells were washed with PBS and 0.05% trypsin solution was added to the flask. Cells were incubated for 2 min, diluted with fibroblast growth media, and then harvested and centrifuged (200× g, 5 min) in a conical tube. The supernatant was aspirated and the cell pellet was re-suspended in serum-free culture media. When used in fibrin degradation experiments, cells were re-suspended at 2× the final desired concentration (1000 cells/ul unless otherwise indicated). All experiments were conducted with cells at or below passage 12. In all experiments, media was changed every 48 hours and any media additives (plasminogen, TGF-β1, drugs, etc.) were included.\nWorking solutions of PEG with 0.1 U/mL of thrombin were warmed to 37° C. and pipetted into a 96-well plate. For production of droplets, fibrinogen-DEX solutions with cell suspension were maintained at 37° C. and pipetted directly into the PEG-thrombin media using either a manual pipette or a semi-automated 96-channel pipette (Viaflo-96; Integra). All assays utilized a volume of 1 μl unless otherwise noted. Following dispensing of the DEX phase, the plates were placed in an incubator at 37° C. for 30 min to allow the thrombin to enzymatically crosslink the fibrinogen into a fibrin matrix (FIG. 1A). The PEG-enriched media was then washed four times by removing, then replacing half of the media with PEG-free media. When applicable, the final media addition was supplemented with stimuli as detailed in Example 5 below. For the duration of each experiment, assay plates were imaged every 2 hours at 4× with an automated cell culture monitoring system (Incucyte S3; Essen Biosystems). After one day of culture, plasminogen (50 μg/mL) (Human Glu-Plasminogen; Enzyme Research Labs) was added as a 10× concentrated solution to each well in order to initiate assay degradation (FIG. 1B), unless otherwise noted for specific conditions. Fresh plasminogen was included with each subsequent media addition. Positive controls with active plasmin (1 U/ml) (Human Plasmin; Enzyme Research Labs) and negative controls without plasminogen were included in each experiment. As cells activated plasminogen, the fibrin scaffold progressively degraded as illustrated in FIG. 1C.\nAfter each experiment, brightfield images for every time point were downloaded in jpeg format from the automated cell culture monitoring system. Python's OpenCV library was implemented for the masking approach illustrated in FIG. 2A. First, a threshold was set at 50% of the maximum intensity (128 for 8-bit integer pixel values) in order to isolate the darker pixels of semi-opaque fibrin hydrogel from the background of the image. A closing morphological filter with a 25×25 kernel was then applied to each mask in order to remove noise. […]"}, "[3]": {"settings": "TGF-β1 treated (2 ng/mL), NHLF and IPF cells, 10 μM TM5275, 500 μM pirfenidone"}},
  "data": [
    {"molecule": "O=C(COCC(=O)N1CCN(C(c2ccccc2)c2ccccc2)CC1)Nc1ccc(Cl)cc1C(=O)O", "note": "[TM5275]", "values": [
      {"measurement": "final area of spheroids", "setting": "[1]; [3]", "value": "decreased the spheroid area"},
      {"measurement": "spheroid area", "setting": "[1]; conditions that omitted TGF-β1, 10 μM TM5275", "value": "not in conditions that omitted TGF-β1"}
    ]},
    {"molecule": "CCOC(=O)c1ccc(-c2ncc(C(=O)OCC)s2)nc1", "note": "[diethyl-pythiDC]", "values": [
      {"measurement": "impact on fibroblast-mediated fibrinolysis", "setting": "[2]", "value": "significantly (P<0.05) delayed fibrinolysis"}
    ]},
    {"molecule": "OO", "note": "[hydrogen peroxide]", "values": [
      {"measurement": "rate of cell-mediated fibrinolysis (50% degradation time)", "setting": "[2]; conditions that included TGF-β1 (2 ng/ml)", "value": "no significant difference"},
      {"measurement": "rate of cell-mediated fibrinolysis (50% degradation time)", "setting": "[2]; no TGF-β1", "value": "highly significant decreases in the rates of fibrinolysis"}
    ]},
    {"molecule": "COC(=O)c1ccc2c(c1)NC(=O)/C2=C(\\Nc1ccc(N(C)C(=O)CN2CCN(C)CC2)cc1)c1ccccc1", "note": "[nintedanib]", "values": [
      {"measurement": "final area of spheroids", "setting": "[1]; all conditions (with and without TGF-β1; NHLF and IPF cells), 1 μM nintedanib", "value": "significant decreases in final area for all conditions"},
      {"measurement": "final projected area, fibroblast donor variability", "setting": "[1]; nintedanib, 2 normal and 2 IPF donors, one IPF donor not statistically significant (p<0.3)", "value": "reduced the final projected area"},
      {"measurement": "impact on fibroblast-mediated fibrinolysis", "setting": "[2]", "value": "did not show a significant impact on fibrinolysis"}
    ]},
    {"molecule": "Cc1ccc(=O)n(-c2ccccc2)c1", "note": "[pirfenidone]", "values": [
      {"measurement": "final area of spheroids", "setting": "[1]; [3]", "value": "significant decrease in final area"},
      {"measurement": "impact on fibroblast-mediated fibrinolysis", "setting": "[2]", "value": "did not show a significant impact on fibrinolysis"}
    ]},
    {"molecule": "plasmin: Human Plasmin (Enzyme Research Labs), positive control for fibrin degradation (protein, UniProt P00747 20-580; P00747 581-810, looked up, Plasmin, Human Plasmin (Enzyme Research Labs), positive control for fibrin degradation) Plasmin heavy chain A: EPLDDYVNTQGASLFSVTKKQLGAGSIEECAAKCEEDEEFTCRAFQYHSKEQQCVIMAENRKSSIIIRMRDVVLFEKKVYLSECKTGNGKNYRGTMSKTKNGITCQKWSSTSPHRPRFSPATHPSEGLEENYCRNPDNDPQGPWCYTTDPEKRYDYCDILECEEECMHCSGENYDGKISKTMSGLECQAWDSQSPHAHGYIPSKFPNKNLKKNYCRNPDRELRPWCFTTDPNKRWELCDIPRCTTPPPSSGPTYQCLKGTGENYRGNVAVTVSGHTCQHWSAQTPHTHNRTPENFPCKNLDENYCRNPDGKRAPWCHTTNSQVRWEYCKIPSCDSSPVSTEQLAPTAPPELTPVVQDCYHGDGQSYRGTSSTTTTGKKCQSWSSMTPHRHQKTPENYPNAGLTMNYCRNPDADKGPWCFTTDPSVRWEYCNLKKCSGTEASVVAPPPVVLLPDVETPSEEDCMFGNGKGYRGKRATTVTGTPCQDWAAQEPHRHSIFTPETNPRAGLEKNYCRNPDGDVGGPWCYTTNPRKLYDYCDVPQCAAPSFDCGKPQVEPKKCPGR Plasmin light chain B: VVGGCVAHPHSWPWQVSLRTRFGMHFCGGTLISPEWVLTAAHCLEKSPRPSSYKVILGAHQEVNLEPHVQEIEVSRLFLEPTRKDIALLKLSSPAVITDKVIPACLPSPNYVVADRTECFITGWGETQGTFGAGLLKEAQLPVIENKVCNRYEFLNGRVQSTELCAGHLAGGTDSCQGDSGGPLVCFEKDKYILQGVTSWGLGCARPNKPGVYVRVSRFVTWIEGVMRNN", "values": [
      {"measurement": "matrix degradation, positive control", "setting": "[2]; exogenous plasmin 1 U/ml", "value": "rapid matrix degradation"}
    ]}
  ]
}
